Measured values taken from PubChem BioAssay (NCI).
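Cultured in 96-well plates, cells were exposed to test compound for 48 hours across five concentrations. Here, GI50 denotes the concentration required for 50% inhibition of growth. TGI marks complete inhibition of growth.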

How the values were obtained:
Test in all cases: growth of human tumour cells (NCI), 48 h
CCRF-CEM leukemia = test system: CCRF-CEM leukemia
COLO 205 colon = test system: COLO 205 colon
HCC-2998 colon = test system: HCC-2998 colon
HCT-15 colon = test system: HCT-15 colon
K-562 leukemia = test system: K-562 leukemia
OVCAR-5 ovarian = test system: OVCAR-5 ovarian
SW-620 colon = test system: SW-620 colon
UO-31 renal = test system: UO-31 renal
SK-MEL-28 melanoma = test system: SK-MEL-28 melanoma
OVCAR-4 ovarian = test system: OVCAR-4 ovarian

SMILES	GI50 (CCRF-CEM leukemia)	TGI (CCRF-CEM leukemia)	GI50 (COLO 205 colon)	TGI (COLO 205 colon)	GI50 (HCC-2998 colon)	TGI (HCC-2998 colon)	GI50 (HCT-15 colon)	TGI (HCT-15 colon)	GI50 (K-562 leukemia)	TGI (K-562 leukemia)	GI50 (OVCAR-5 ovarian)	TGI (OVCAR-5 ovarian)	GI50 (SW-620 colon)	TGI (SW-620 colon)	GI50 (UO-31 renal)	TGI (UO-31 renal)	GI50 (SK-MEL-28 melanoma)	TGI (SK-MEL-28 melanoma)	TGI (OVCAR-4 ovarian)	GI50 (OVCAR-4 ovarian)
Oc1ccc(O)c(-c2cn3ccsc3n2)c1	1.59 µM	4.23 µM	21.4 µM	48.2 µM	16.5 µM	31.1 µM	12.3 µM	24.7 µM	6.93 µM	26.1 µM	12 µM	26.5 µM	7.1 µM	19.1 µM	12.6 µM	25.2 µM	–	–	–	–
Nc1nc2c(s1)CCc1c-2c(Br)n(Cc2ccccc2)c1Br	0.534 µM	11.9 µM	2.53 µM	5.13 µM	18 µM	33.7 µM	3.98 µM	15.9 µM	3.55 µM	19.3 µM	19.8 µM	39.3 µM	3.31 µM	9.74 µM	1.8 µM	4.41 µM	12.9 µM	26.2 µM	–	–
COC(=O)C(=O)C(C(=O)C(=O)Nc1nc2ccc(C)cc2s1)c1nc2ccc([N+](=O)[O-])cc2[nH]c1=O (centres undefined)	–	> 100 µM	–	–	–	> 100 µM	–	> 100 µM	–	> 100 µM	–	> 100 µM	–	> 100 µM	–	> 100 µM	–	> 100 µM	–	–
Cc1ccc(NC(=O)C(=O)C(C#N)c2nc(-c3ccc(-c4ccccc4)cc3)cs2)c(C)c1 (centres undefined)	–	–	–	> 100 µM	–	> 100 µM	–	> 100 µM	–	–	–	> 100 µM	–	> 100 µM	–	> 100 µM	–	> 100 µM	> 100 µM	–
O=CNc1ncn[nH]1	–	> 100 µM	–	> 100 µM	–	–	–	> 100 µM	–	> 100 µM	–	> 100 µM	–	> 100 µM	–	> 100 µM	–	> 100 µM	> 100 µM	–
COc1ccc2c(c1)[n+](=O)c(C(=O)c1ccco1)c(C(F)(F)F)n2[O-]	–	–	3.55 µM	18.7 µM	–	–	1.16 µM	4.6 µM	5.24 µM	> 100 µM	3.51 µM	22.3 µM	3.53 µM	34.5 µM	0.387 µM	2.51 µM	12.3 µM	94.9 µM	–	–
Cl.Fc1c[c-]c(-c2ccccn2)c(F)c1.[Pt].c1ccc(P(c2ccccc2)C([PH+](c2ccccc2)c2ccccc2)[PH+](c2ccccc2)c2ccccc2)cc1	3.26 µM	> 100 µM	1.87 µM	3.92 µM	4.43 µM	29.6 µM	6.88 µM	> 100 µM	2.44 µM	> 100 µM	2.97 µM	> 100 µM	3.19 µM	14.6 µM	2.27 µM	7.65 µM	5.02 µM	26.9 µM	–	–
COC(=O)C(CC(C)C)NC(=O)NC12CC3CC(CC(F)(C3)C1)C2 (centres undefined)	–	> 100 µM	–	> 100 µM	–	> 100 µM	–	–	–	> 100 µM	–	> 100 µM	–	> 100 µM	–	> 100 µM	–	> 100 µM	–	–
C=C(C)[C@@H]1CC[C@]2(C(=O)O)CC[C@]3(C)[C@H](CC[C@@H]4[C@@]5(C)C[C@@H](CC#Cc6ccc(C(F)(F)F)cc6)[C@H](O)C(C)(C)[C@@H]5CC[C@]43C)[C@@H]12	2.98 µM	> 100 µM	3.72 µM	> 100 µM	8.48 µM	> 100 µM	3.95 µM	> 100 µM	1.93 µM	> 100 µM	–	–	–	–	6.52 µM	> 100 µM	–	–	–	–
O=C(CN(/C=C/C(=O)C(F)(F)F)c1ccc(Cl)cc1)c1ccccc1	8.8 µM	33.5 µM	15.3 µM	> 100 µM	7.93 µM	21.1 µM	15.1 µM	38.7 µM	2.8 µM	> 100 µM	15.6 µM	40.7 µM	14.6 µM	62.1 µM	13.5 µM	29.9 µM	17.3 µM	37.5 µM	–	–
O=C1c2nsnc2C(=O)c2c(F)c(F)c(F)c(F)c21	0.117 µM	0.542 µM	0.236 µM	0.527 µM	1.56 µM	3.14 µM	0.495 µM	2 µM	0.238 µM	1.01 µM	1.93 µM	3.47 µM	0.172 µM	0.348 µM	0.702 µM	2 µM	0.594 µM	1.76 µM	–	–
NC(N)=N/N=C/c1c(-c2cc(Cl)sc2Cl)nc2sccn12	0.807 µM	1.68 µM	–	–	0.854 µM	1.56 µM	1.01 µM	2.87 µM	1.32 µM	3.14 µM	0.956 µM	2.05 µM	1 µM	2.43 µM	2 µM	> 50 µM	–	–	–	–
CC1COc2c(N3CCN(C)CC3)c(F)cc3c(=O)c(C(=O)O)cn1c23 (centres undefined)	> 100 µM	> 100 µM	> 100 µM	> 100 µM	–	–	> 100 µM	> 100 µM	96.8 µM	> 100 µM	84.4 µM	> 100 µM	> 100 µM	> 100 µM	47.5 µM	> 100 µM	> 100 µM	> 100 µM	> 100 µM	> 100 µM
